Where two headings read alike, the source gives them in different places.
Tested on: Staphylococcus haemolyticus CNCM I-4170
Experiment: Protocol A: in-vitro malodor inhibition (free thiol groups from Cys-Gly precursor, DTNB absorbance at 412 nm)
Assay type: cell-based
Text: Further details of such a screening and % inhibition measurement and definition are described further on in this application. The precursor used, which may also be in the form of a human sweat sample, typically generates malodorant sulfur compounds when acted upon by the Staphylococcus haemolyticus cells, or by a β-lyase present in such cells. The malodor inhibition coefficient, as defined herein, reflects the % of reduction in free SH groups generated in the above-mentioned medium by the enzymatic activity of the bacterial cells when in presence of the MOC ingredient or MOC composition in question, as compared to the same measurement in their absence. […] Alternatively, the bacterial cells can be replaced by a β-lyase present in said cells. […] Detection of enzymatic activity inhibition is measured via the sulfur groups, namely thiol groups, freed from the precursor bacterial transformation, by comparison with the reference experiment in the absence of the respective MOC ingredient, said sulfur groups being detected by interaction with DTNB, a known chemical detector system for thiols. The reaction can be monitored by absorbance reading at 412 nm. The procedure can be performed indifferently with either a purified or semi-purified enzyme or intact bacterial cells, as in the case described here. Malodor inhibition coefficient is measured as a function of the percentage of free thiol groups in the medium, over time, by an absorbance method, and reflects the reduction in malodor obtained in the presence of the MOC ingredients and compositions. […] At the end of the growth phase, the bacterial cells were harvested by centrifugation at 5000 rpm for 15 min. The cell pellet was then washed with 0.1 volumes of sterile potassium phosphate buffer 0.1 M, pH 7.5. […] The precursor was used at 0.17 mM final concentration. • Detection reagent DTNB • DTNB (5,5′-Dithio-bis-(2-nitrobenzoic acid; […]

[1] = Staphylococcus haemolyticus, CNCMI4170, Table 2, 0.0012 w/v % in medium, read-out: Ingredient Malodor Inhibition Value (%)
[2] = Staphylococcus haemolyticus, CNCMI4170, Table 2, 0.005 w/v % in medium, read-out: Ingredient Malodor Inhibition Value (%)
[3] = Staphylococcus haemolyticus, CNCMI4170, Table 2, 0.0025 w/v % in medium, read-out: Ingredient Malodor Inhibition Value (%)
[4] = Table 2, 0.0012 w/v % in medium
[5] = Table 2, 0.0025 w/v % in medium
[6] = Staphylococcus haemolyticus, CNCMI4170, Table 2, 0.0125 w/v % in medium, read-out: Ingredient Malodor Inhibition Value (%)
[7] = Staphylococcus haemolyticus, CNCMI4170, Table 2, 0.025 w/v % in medium, read-out: Ingredient Malodor Inhibition Value (%)
[8] = Staphylococcus haemolyticus, CNCMI4170, 0.0012 w/v % in medium, read-out: Ingredient Malodor Inhibition Value (%)
[9] = Staphylococcus haemolyticus, CNCMI4170, 0.0025 w/v % in medium, read-out: Ingredient Malodor Inhibition Value (%)
[10] = Staphylococcus haemolyticus, CNCMI4170, 0.006 w/v % in medium, read-out: Ingredient Malodor Inhibition Value (%)
[11] = Staphylococcus haemolyticus, CNCMI4170, 0.0125 w/v % in medium, read-out: Ingredient Malodor Inhibition Value (%)
[12] = Staphylococcus haemolyticus, CNCMI4170, 0.025 w/v % in medium, read-out: Ingredient Malodor Inhibition Value (%)
[13] = Staphylococcus haemolyticus, CNCMI4170, 0.1 w/v % in medium, read-out: Ingredient Malodor Inhibition Value (%)
[14] = Staphylococcus haemolyticus, CNCMI4170, 0.05 w/v % in medium, read-out: Ingredient Malodor Inhibition Value (%)

Molecule: C=CCCCCCCCCC=O [10-Undecenal]
- inhibition at 0.0012 % [1]: 3%
- inhibition at 0.005 % [2]: 49.2%

Molecule: CCCCCCC/C=C\CCC=O [(Z)-4-Dodecenal]
- inhibition at 0.0006 % (Staphylococcus haemolyticus, CNCMI4170, Table 2, 0.0006 w/v % in medium, read-out: Ingredient Malodor Inhibition Value (%)): 0%
- inhibition at 0.0012 % [1]: 0%
- inhibition at 0.0025 % [3]: 6.96%
- inhibition at 0.005 % [2]: 76.5%

Molecule: CC1=CC[C@H](C(C)CC=O)CC1 (single isomer, unassigned; (+)) [(+)-(4R)-1-P-Menthene-9-carbaldehyde]
- Ingredient Malodor Inhibition Value (%) [4]: 0.00%
- Ingredient Malodor Inhibition Value (%) [5]: 3.44%
- Ingredient Malodor Inhibition Value (%) (Table 2, 0.005 w/v % in medium): 34.61%
- Ingredient Malodor Inhibition Value (%) (Table 2, 0.0125 w/v % in medium): 81.68%
- Ingredient Malodor Inhibition Value (%) (Table 2, 0.025 w/v % in medium): 97.82%

Molecule: CC1=CC2CC(C=O)C1CC2C(C)C (stereo not shown) [8-Isopropyl-6-methyl-bicyclo[2.2.2]oct-5-ene-2-carbaldehyde]
- inhibition at 0.0012 % [1]: 18.9%
- inhibition at 0.0025 % [3]: 28.3%
- inhibition at 0.005 % [2]: 76.9%
- inhibition at 0.0125 % [6]: 84.5%
- inhibition at 0.025 % [7]: 82.9%
- inhibition at 0.05 % (Staphylococcus haemolyticus, CNCMI4170, Table 2, 0.05 w/v % in medium, read-out: Ingredient Malodor Inhibition Value (%)): 88.2%

Molecule: CC1=CC[C@H](/C=C/C(C)(C)C(C)O)C1(C)C (single isomer, unassigned; (-)) [(-)-(1′R,E)-3,3-Dimethyl-5-(2′,2′,3′-trimethyl-3′-cyclopenten-1′-yl)-4-penten-2-ol]
- Ingredient Malodor Inhibition Value (%) (0.0012 w/v % in medium): 0.00%
- Ingredient Malodor Inhibition Value (%) (0.0025 w/v % in medium): 27.39%
- Ingredient Malodor Inhibition Value (%) (0.006 w/v % in medium): 75.11%
- Ingredient Malodor Inhibition Value (%) (0.0125 w/v % in medium): 76.95%
- Ingredient Malodor Inhibition Value (%) (0.025 w/v % in medium): 76.65%

Molecule: CC(C)(O)CCC1CCCCC1 [Coranol ®, 4-cyclohexyl-2-methyl-2-butanol]
- inhibition at 0.0012 % [8]: 0%
- inhibition at 0.0025 % [9]: 0%
- inhibition at 0.006 % [10]: 10.8%
- inhibition at 0.0125 % [11]: 49.8%
- inhibition at 0.025 % [12]: 77.7%
- inhibition at 0.1 % [13]: 77.8%

Molecule: Vetyverone
- Ingredient Malodor Inhibition Value (%) [4]: 10.9%
- Ingredient Malodor Inhibition Value (%) [5]: 10.40%
- Ingredient Malodor Inhibition Value (%) (Table 2, 0.005 w/v % in medium): 44.6%
- Ingredient Malodor Inhibition Value (%) (Table 2, 0.025 w/v % in medium): 47.1%
- Ingredient Malodor Inhibition Value (%) (Table 2, 0.05 w/v % in medium): 54.2%

Molecule: CC(C)(C)c1ccc(CCC=O)cc1 [Bourgeonal, 3-(4-tert-butylphenyl)propanal]
- inhibition at 0.0012 % [8]: 4.15%
- inhibition at 0.0025 % [9]: 7.06%
- inhibition at 0.006 % [10]: 42.6%

Molecule: CC(C)(C)C1CCC(O)CC1 (stereo not shown) [4-tert-Butyl-1-cyclohexanol]
- inhibition at 0.0012 % [8]: 0%
- inhibition at 0.0025 % [9]: 0%
- inhibition at 0.006 % [10]: 0%
- inhibition at 0.0125 % [11]: 0%
- inhibition at 0.025 % [12]: 59.8%
- inhibition at 0.05 % [14]: 89.1%

Molecule: CC/C(=C\C[C@H]1CC=C(C)C1(C)C)CO [(-)-(2E)-2-Ethyl-4-[(1R)-2,2,3-trimethyl-3-cyclopenten-1-yl]-2-buten-1-ol]
- inhibition at 0.0012 % [8]: 0%
- inhibition at 0.0025 % [9]: 21.2%
- inhibition at 0.006 % [10]: 70.8%
- inhibition at 0.0125 % [11]: 80%
- inhibition at 0.025 % [12]: 80.3%

Molecule: CCC(C)CCCC(C)(C)O (stereo not shown) [Tetrahydromyrcenol]
- Ingredient Malodor Inhibition Value (%) (0.0012 w/v % in medium): 0.00%
- Ingredient Malodor Inhibition Value (%) (0.0025 w/v % in medium): 0.00%
- Ingredient Malodor Inhibition Value (%) (0.006 w/v % in medium): 0.00%
- Ingredient Malodor Inhibition Value (%) (0.0125 w/v % in medium): 0.00%
- Ingredient Malodor Inhibition Value (%) (0.025 w/v % in medium): 41.38%
- Ingredient Malodor Inhibition Value (%) (0.05 w/v % in medium): 72.56%
- Ingredient Malodor Inhibition Value (%) (0.1 w/v % in medium): 66.63%

Molecule: CC1(C)CCCC2(C)C1CCC1(C)OCCC12 (stereo not shown) [Ambrox ®, 8,12-epoxy-13,14,15,16-tetranorlabdane]
- Ingredient Malodor Inhibition Value (%) (0.0012 w/v % in medium): 0.00%
- Ingredient Malodor Inhibition Value (%) (0.0025 w/v % in medium): 0.00%
- Ingredient Malodor Inhibition Value (%) (0.05 w/v % in medium): 18.23%
- Ingredient Malodor Inhibition Value (%) (0.1 w/v % in medium): 38.00%

Molecule: CCCCC/C=C/CCC=O [(E)-4-Decenal]
- inhibition at 0.0012 % [1]: 22%
- inhibition at 0.0025 % [3]: 28.2%
- inhibition at 0.005 % [2]: 66.6%
- inhibition at 0.0125 % [6]: 90.1%
- inhibition at 0.025 % [7]: 100%

Molecule: CC1C(C)(C)C2=C(C(=O)CCC2)C1(C)C (stereo not shown) [Cashmeran, 1,2,3,5,6,7-hexahydro-1,1,2,3,3-pentamethyl-4-indenone]
- inhibition at 0.0012 % [8]: 0%
- inhibition at 0.0025 % [9]: 0%
- inhibition at 0.006 % [10]: 19.2%
- inhibition at 0.0125 % [11]: 54%
- inhibition at 0.025 % [12]: 71.5%
- inhibition at 0.05 % [14]: 70.1%
- inhibition at 0.1 % [13]: 73.2%

Source: US20150297482A1, “MALODOR COUNTERACTING COMPOSITIONS AND METHOD FOR THEIR USE TO COUNTERACT SWEAT MALODOR” (FIRMENICH SA, priority 2009, published 2015)
